The supplement of paper PMC5908809

Tests used:
[1] = test system: normal NK cells expanded with K562-aAPC; experiment: percent inhibition of viability; higher = more inhibition; details: 72 h, IL-2 2.5 ng/mL
Protocol: (§1)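 Drug sensitivity and resistance testing on K562-aAPC-expanded normal NK cells: 5 concentrations (10-fold steps over a 10,000-fold range), 72 h at 37 °C, viability by CellTiter-Glo normalised to DMSO and benzethonium chloride controls; DSS from the fitted curve.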

[2] = test system: normal NK cells expanded with K562-aAPC; experiment: drug sensitivity score (DSS) (DSS units); higher = more sensitive; extreme values may be limits of the assay; details: 72 h; IL-2 2.5 ng/mL
Protocol: as §1

NK-YS (IL-2 2.5 ng/mL) [3] = experiment: percent inhibition of viability; higher = more inhibition; details: 72 h
KHYG-1 (IL-2 2.5 ng/mL) [4] = experiment: as above; details: 72 h
KAI3 (IL-2 2.5 ng/mL) [5] = experiment: as above; details: 72 h
SNK-6 (IL-2 2.5 ng/mL) [6] = experiment: as above; details: 72 h
[7] = test system: normal primary NK cells, pool 1 (3 donors), resting (IL-2 0 ng/mL); experiment: as above; details: 72 h
NKL (IL-2 2.5 ng/mL) [8] = experiment: as above; details: 72 h
[9] = test system: normal primary NK cells, pool 3 (3 donors) (IL-2 2.5 ng/mL); experiment: as above; details: 72 h
IMC-1 (IL-2 20 ng/mL) [10] = experiment: as above; details: 72 h
[11] = test system: normal primary NK cells, pool 2 (3 donors) (IL-2 2.5 ng/mL); experiment: as above; details: 72 h
DERL-7 (IL-2 2.5 ng/mL) [12] = experiment: as above; details: 72 h
YT (IL-2 2.5 ng/mL) [13] = experiment: as above; details: 72 h
NK-92 (IL-2 2.5 ng/mL) [14] = experiment: as above; details: 72 h
[15] = test system: normal primary NK cells, pool 1 (3 donors) (IL-2 2.5 ng/mL); experiment: as above; details: 72 h
NK-YS (IL-2 2.5 ng/mL) [16] = experiment: drug sensitivity score (DSS) (DSS units); higher = more sensitive; extreme values may be limits of the assay; details: 72 h
KHYG-1 (IL-2 2.5 ng/mL) [17] = experiment: as above; details: 72 h
KAI3 (IL-2 2.5 ng/mL) [18] = experiment: as above; details: 72 h
SNK-6 (IL-2 2.5 ng/mL) [19] = experiment: as above; details: 72 h
[20] = test system: normal primary NK cells, pool 1 (3 donors), resting (IL-2 0 ng/mL); experiment: as above; details: 72 h
NKL (IL-2 2.5 ng/mL) [21] = experiment: as above; details: 72 h
[22] = test system: normal primary NK cells, pool 3 (3 donors) (IL-2 2.5 ng/mL); experiment: as above; details: 72 h
IMC-1 (IL-2 20 ng/mL) [23] = experiment: as above; details: 72 h
[24] = test system: normal primary NK cells, pool 2 (3 donors) (IL-2 2.5 ng/mL); experiment: as above; details: 72 h
DERL-7 (IL-2 2.5 ng/mL) [25] = experiment: as above; details: 72 h
YT (IL-2 2.5 ng/mL) [26] = experiment: as above; details: 72 h
NK-92 (IL-2 2.5 ng/mL) [27] = experiment: as above; details: 72 h
[28] = test system: normal primary NK cells, pool 1 (3 donors) (IL-2 2.5 ng/mL); experiment: as above; details: 72 h

OC[C@H]1O[C@@H](n2cnc3c2N=CNC[C@H]3O)C[C@@H]1O [Pentostatin] (max concentration tested 10000 nM)
percent inhibition of viability [%]
Details	1 nM	10 nM	100 nM	1000 nM	10000 nM
DERL-7 (IL-2 2.5 ng/mL) [12]	-9.03	2.32	-10.5	-5.23	-4.31
IMC-1 (IL-2 20 ng/mL) [10]	0.7	-6.1	1.22	0.79	10.6
KAI3 (IL-2 2.5 ng/mL) [5]	-10.6	-16.4	-2.67	-7.59	-0.36
KHYG-1 (IL-2 2.5 ng/mL) [4]	-3.74	-3.32	0.86	5.07	5.26
NK-92 (IL-2 2.5 ng/mL) [14]	-4	-10.1	-2.52	-6.44	6.47
NK-YS (IL-2 2.5 ng/mL) [3]	-2.76	-5.13	-3.05	6.9	9.33
NKL (IL-2 2.5 ng/mL) [8]	-20.9	-21.1	-17.4	-6.93	-7.04
SNK-6 (IL-2 2.5 ng/mL) [6]	4.13	3.89	8.33	34	20.9
YT (IL-2 2.5 ng/mL) [13]	-4.24	-0.68	3.36	4.3	8.72
[1]	0.75	-2.98	3.38	6.95	8.99
[7]	-7.98	1.6	-13.1	-28.3	-7.61
[9]	-11.3	-12.5	-7.39	-4.5	11.5
[11]	-9.21	-12.2	-5.88	-13.3	1.05
[15]	-3.11	3.31	-8.32	-5.87	1.1

Details	drug sensitivity score
DERL-7 (IL-2 2.5 ng/mL) [25]	0
IMC-1 (IL-2 20 ng/mL) [23]	0
KAI3 (IL-2 2.5 ng/mL) [18]	0
KHYG-1 (IL-2 2.5 ng/mL) [17]	0
NK-92 (IL-2 2.5 ng/mL) [27]	0
NK-YS (IL-2 2.5 ng/mL) [16]	0
NKL (IL-2 2.5 ng/mL) [21]	0
SNK-6 (IL-2 2.5 ng/mL) [19]	7.04
YT (IL-2 2.5 ng/mL) [26]	0
[2]	0
[20]	0
[22]	0
[24]	0
[28]	0

Cc1[nH]c2ccccc2c1CCNCc1ccc(/C=C/C(=O)NO)cc1 [Panobinostat] (max concentration tested 1000 nM)
percent inhibition of viability [%]
Details	0.1 nM	1 nM	10 nM	100 nM	1000 nM
DERL-7 (IL-2 2.5 ng/mL) [12]	-11.8	-4.71	36.5	100	100
IMC-1 (IL-2 20 ng/mL) [10]	-2.07	-6.63	2.44	100	100
KAI3 (IL-2 2.5 ng/mL) [5]	4.1	14.2	61.8	101	101
KHYG-1 (IL-2 2.5 ng/mL) [4]	-7.12	-8.38	22.6	101	101
NK-92 (IL-2 2.5 ng/mL) [14]	-5.27	-2.71	34	98.1	101
NK-YS (IL-2 2.5 ng/mL) [3]	-8.83	-9.94	19.8	97.1	98.8
NKL (IL-2 2.5 ng/mL) [8]	-1.46	1.8	61.1	101	100
SNK-6 (IL-2 2.5 ng/mL) [6]	-14.8	4.53	31.4	98.9	99.6
YT (IL-2 2.5 ng/mL) [13]	0.21	-1.12	12.8	101	98.4
[1]	0.2	2.99	33.4	99.8	99.8
[7]	-10.7	2.83	67	89.2	90.8
[9]	-7.01	-2.67	31.6	97.8	98.5
[11]	-7.26	-4.93	64.8	94.5	94.9
[15]	0.27	-4.7	33.9	97	97.5

Details	drug sensitivity score
DERL-7 (IL-2 2.5 ng/mL) [25]	23
IMC-1 (IL-2 20 ng/mL) [23]	18.3
KAI3 (IL-2 2.5 ng/mL) [18]	26
KHYG-1 (IL-2 2.5 ng/mL) [17]	21.6
NK-92 (IL-2 2.5 ng/mL) [27]	22.5
NK-YS (IL-2 2.5 ng/mL) [16]	21
NKL (IL-2 2.5 ng/mL) [21]	25.2
SNK-6 (IL-2 2.5 ng/mL) [19]	22.1
YT (IL-2 2.5 ng/mL) [26]	20.1
[2]	22.6
[20]	24.6
[22]	22.3
[24]	24.6
[28]	22.3

Nc1ncnc2c1nc(Cl)n2[C@@H]1O[C@H](CO)[C@@H](O)[C@H]1O [8-chloro-adenosine] (max concentration tested 50000 nM)
percent inhibition of viability [%]
Details	5 nM	50 nM	500 nM	5000 nM	50000 nM
DERL-7 (IL-2 2.5 ng/mL) [12]	-0.76	-2.87	38.2	96.9	101
IMC-1 (IL-2 20 ng/mL) [10]	-4.61	-4.66	-2.73	-11.7	66.7
KAI3 (IL-2 2.5 ng/mL) [5]	-13.1	-12.4	38.3	86.7	92.9
KHYG-1 (IL-2 2.5 ng/mL) [4]	-6.84	-4.5	1.43	75.4	94
NK-92 (IL-2 2.5 ng/mL) [14]	-20.2	-17.7	8.7	44.5	64
NK-YS (IL-2 2.5 ng/mL) [3]	-8.76	-5.07	22.4	73.6	92.2
NKL (IL-2 2.5 ng/mL) [8]	-21.8	-24.6	-10.7	40.7	75.6
SNK-6 (IL-2 2.5 ng/mL) [6]	21.5	20.6	46.5	92.8	96.9
YT (IL-2 2.5 ng/mL) [13]	-2.82	-1.05	1.56	66.9	72.2
[1]	-0.51	-6.13	2.57	35.4	73
[7]	-17.2	-29.2	-19.8	36.1	78.2
[9]	-18.1	-3.17	-4.4	17.3	57.7
[11]	-8.69	0.94	1.41	28	71.1
[15]	-2.27	-6.47	-3.95	30.1	77.2

Details	drug sensitivity score
DERL-7 (IL-2 2.5 ng/mL) [25]	22.6
IMC-1 (IL-2 20 ng/mL) [23]	2.97
KAI3 (IL-2 2.5 ng/mL) [18]	21.9
KHYG-1 (IL-2 2.5 ng/mL) [17]	14
NK-92 (IL-2 2.5 ng/mL) [27]	9.34
NK-YS (IL-2 2.5 ng/mL) [16]	16.3
NKL (IL-2 2.5 ng/mL) [21]	9.19
SNK-6 (IL-2 2.5 ng/mL) [19]	23.8
YT (IL-2 2.5 ng/mL) [26]	12.5
[2]	8.27
[20]	8.97
[22]	5.7
[24]	7.63
[28]	8.37

Cc1[nH]c(/C=C2\C(=O)Nc3ccccc32)c(C)c1CCC(=O)O [Orantinib] (max concentration tested 10000 nM)
percent inhibition of viability [%]
Details	1 nM	10 nM	100 nM	1000 nM	10000 nM
DERL-7 (IL-2 2.5 ng/mL) [12]	1.12	-2.21	-6.87	-10.2	-8.27
IMC-1 (IL-2 20 ng/mL) [10]	-7.71	-4.44	-5.94	1.86	11
KAI3 (IL-2 2.5 ng/mL) [5]	0.42	1.13	-2.39	7	29.4
KHYG-1 (IL-2 2.5 ng/mL) [4]	-7.11	-2.97	-4.54	8.46	13.8
NK-92 (IL-2 2.5 ng/mL) [14]	-10.9	-1.51	-13.1	11.1	13
NK-YS (IL-2 2.5 ng/mL) [3]	-6.4	-2.5	-1.18	7.48	23.9
NKL (IL-2 2.5 ng/mL) [8]	-19.2	-18.2	-1.7	6.18	14.6
SNK-6 (IL-2 2.5 ng/mL) [6]	-0.4	10.2	3.89	15.8	-2.27
YT (IL-2 2.5 ng/mL) [13]	-3.34	1.08	0.41	8.54	18.7
[1]	-1.66	-4.19	-1.4	6.04	9.43
[7]	-0.49	20.7	11.4	12.2	21.7
[9]	-4.8	2.21	11.9	-1.68	9.39
[11]	-0.89	-3.13	6.7	-0.82	5.48
[15]	-0.7	9.63	7.39	4.16	9.93

Details	drug sensitivity score
DERL-7 (IL-2 2.5 ng/mL) [25]	0
IMC-1 (IL-2 20 ng/mL) [23]	0.04
KAI3 (IL-2 2.5 ng/mL) [18]	2.32
KHYG-1 (IL-2 2.5 ng/mL) [17]	0.65
NK-92 (IL-2 2.5 ng/mL) [27]	0.62
NK-YS (IL-2 2.5 ng/mL) [16]	1.86
NKL (IL-2 2.5 ng/mL) [21]	0.67
SNK-6 (IL-2 2.5 ng/mL) [19]	0
YT (IL-2 2.5 ng/mL) [26]	1.23
[2]	0
[20]	3.33
[22]	0
[24]	0
[28]	0
